Here are results for one compound from PMC10443802, “Targeting a xenobiotic transporter to ameliorate vincristine-induced sensory neuropathy” (JCI Insight, 2023).

Molecules are shown by their SMILES. Where “and” joins values, the source holds several entries; their conditions need not be identical. Equal values may be shown once.

The term IC50 denotes the concentration that inhibits the measured activity by half.

The test system of data set [1] is CCRF. The experiment in a line: Cytotoxicity of vincristine with or without nilotinib, MTT assay, CCRF. In kind it is cell-based, human. The following applies: CCRF cells, vincristine alone, individual replicates. A general note: Tetrazolium dyes change colour on reduction, which living cells bring about.
Data set [2] deals with hOATP1C1 (Homo sapiens, UniProt Q9NYB5). Description: Substrate uptake in HEK293 cells overexpressing hOATP1C1. The following applies: HEK293 OATP1C1. From the text: transfected with transporters of interest, including hOAT1, hOAT3, hOAT4, hOATP1A2, hOATP3A1, hOATP4A1, hOATP5A1, hOATP1C1, hOATP1B1, hOATP1B3, hOATP2B1, hOCT1, hOCT2, hOCTN1, hOCTN2, hASBT, hNTCP, hNPT1, hMATE1, hOSTα/β, hPEPT1, hPEPT2, rOatp1a1, rOatp1a4, rOatp1a5, rOatp1b2, rNtcp, rAsbt, rOat1, and rOct1. Cells were transfected with expression plasmid or vector control lacking any insert using Lipofectin reagent (Invitrogen). Sixteen hours thereafter, cells were washed with transport media (OPTIMEM, Invitrogen) and treated with radiolabeled drug. At various time intervals, cells were washed three times with ice-cold PBS and then lysed with 1% sodium dodecyl sulfate. The cellular radioactivity was quantified by liquid scintillation counting as described above. Similar analyses were performed in HEK293 cells transfected with hOATP1A2, hOATP1C1, mMATE1, and hMATE1, with cells seeded in poly lysine pre-coated 12-well plates. For hOATP1A2 and hOATP1C1, transient transfections were performed with either an empty vector, OATP1A2, or OATP1C1 using Lipofectamine 2000 according to the manufacturers protocol (Invitrogen). At 48 h post transfection, […]
Samples were analyzed using real-time quantitative PCR and Taqman Probes (Applied Biosystems). The relative gene expression was determined using the ΔΔCt method, and normalized to the mouse or human housekeeping gene, GAPDH. […]

Data set [3] deals with T1, mOATP1B2 (Mus musculus, UniProt Q9JJL3).
T1 sequence (Q9JJL3 1-689): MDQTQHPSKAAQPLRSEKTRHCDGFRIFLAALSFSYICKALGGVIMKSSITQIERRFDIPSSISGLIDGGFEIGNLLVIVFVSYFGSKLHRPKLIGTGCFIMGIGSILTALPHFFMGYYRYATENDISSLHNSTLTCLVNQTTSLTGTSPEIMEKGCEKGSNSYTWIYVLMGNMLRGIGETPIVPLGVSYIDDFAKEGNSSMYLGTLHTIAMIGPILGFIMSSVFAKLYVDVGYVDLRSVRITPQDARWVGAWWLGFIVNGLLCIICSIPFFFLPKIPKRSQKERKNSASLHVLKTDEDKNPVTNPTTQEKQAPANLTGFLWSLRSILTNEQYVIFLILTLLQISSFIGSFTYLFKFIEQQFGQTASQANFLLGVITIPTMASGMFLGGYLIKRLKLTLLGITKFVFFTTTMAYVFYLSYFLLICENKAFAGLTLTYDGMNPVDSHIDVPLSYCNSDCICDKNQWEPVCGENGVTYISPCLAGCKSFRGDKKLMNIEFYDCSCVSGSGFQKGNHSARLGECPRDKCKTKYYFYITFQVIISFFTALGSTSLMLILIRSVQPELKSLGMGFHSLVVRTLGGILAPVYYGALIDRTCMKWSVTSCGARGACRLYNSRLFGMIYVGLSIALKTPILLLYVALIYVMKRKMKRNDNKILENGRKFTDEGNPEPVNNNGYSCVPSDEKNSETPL
Description: Vincristine uptake, HEK293 cells overexpressing mOATP1B2. In kind it is in vitro ADME. From the text: Relative uptake is expressed as percentage change compared with empty vector controls (n = 4–14 per group). […] Human OATP1B1 and OATP1B3 transporter–overexpressed cells were used as positive controls; empty vector controls were used as the negative control. LD, 100 bp ladder. […] Mechanical allodynia (C), thermal hyperalgesia (D), and sciatic nerve maximal action potential amplitudes (E) are expressed as percentage change relative to baseline values (n = 6–8 per group). Statistical analysis was performed using a 2-way ANOVA with Bonferroni’s post hoc test. **P < 0.01, ***P < 0.001, ****P < 0.0001, compared with baseline values. […] Data are shown as mean ± SEM.
Axioskop WideField Light Microscope, as described previously (10). Representative images were captured with a QIClick Digital CCD color camera.
The histograms of g-ratio (axonal diameter/whole fiber diameter as a measure of myelination degree in each fiber) distribution were generated. An observer blinded to the group compositions performed all the morphometric determinations. […]
After incubation, transport was halted by aspirating radiolabeled drug, and rinsing the cells three times with ice-cold 1X PBS. Total radioactivity originating from the substrates was measured by lysing the cells with 1N NaOH, neutralized with 2N HCL, and measuring total radioactivity by liquid scintillation counting using an LS 6500 Counter (Beckman). […]

Data set [4] relates to HL-60. Description: Cytotoxicity of vincristine with or without nilotinib, MTT assay, HL-60. The class given is cell-based, human. As to conditions: individual replicates.

hOATP1C1, sequence (Q9NYB5 whole entry): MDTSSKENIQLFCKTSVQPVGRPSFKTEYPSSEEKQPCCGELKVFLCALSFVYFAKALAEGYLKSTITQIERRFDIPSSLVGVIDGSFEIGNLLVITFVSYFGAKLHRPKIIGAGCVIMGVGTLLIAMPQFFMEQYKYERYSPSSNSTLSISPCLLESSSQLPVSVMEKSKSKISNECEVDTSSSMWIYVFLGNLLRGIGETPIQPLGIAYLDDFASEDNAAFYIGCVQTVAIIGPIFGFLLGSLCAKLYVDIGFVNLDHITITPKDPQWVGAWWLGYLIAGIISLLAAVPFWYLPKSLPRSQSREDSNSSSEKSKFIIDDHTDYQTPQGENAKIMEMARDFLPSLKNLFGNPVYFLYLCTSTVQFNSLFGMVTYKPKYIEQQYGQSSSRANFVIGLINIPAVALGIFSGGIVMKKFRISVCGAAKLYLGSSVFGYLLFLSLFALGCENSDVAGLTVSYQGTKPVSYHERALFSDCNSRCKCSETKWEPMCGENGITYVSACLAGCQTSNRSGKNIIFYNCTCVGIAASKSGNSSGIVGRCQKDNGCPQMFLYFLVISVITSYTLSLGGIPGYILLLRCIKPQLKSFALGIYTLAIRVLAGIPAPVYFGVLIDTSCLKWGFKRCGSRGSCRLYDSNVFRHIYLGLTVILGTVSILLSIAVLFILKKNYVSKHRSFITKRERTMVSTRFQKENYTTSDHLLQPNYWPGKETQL

`CC[C@]1(O)C[C@H]2CN(CCc3c([nH]c4ccccc34)[C@@](C(=O)OC)(c3cc4c(cc3OC)N(C=O)[C@H]3[C@@](O)(C(=O)OC)[C@H](OC(C)=O)[C@]5(CC)C=CCN6CC[C@]43[C@@H]65)C2)C1` [Vincristine, vincristine]: the IC50 in data set [1] was 4.56 nM and 4.49 nM and 1.65 nM and 7.48 nM and 6.4 nM and 5.53 nM and 3.87 nM and 3.24 nM and 7.33 nM; in data set [4] (HL-60 cells, vincristine alone), 9.13 nM and 3.89 nM and 6.71 nM and 7.31 nM and 6.48 nM and 6.07 nM and 6.3 nM and 8.17 nM and 5.71 nM; in data set [4] (Homo sapiens, HL-60, HL-60 cells, vincristine + 1μM Nilotinib) it was 6.98 nM. Moreover, the “Contribution of transporter to cellular uptake of vincristine” value in data set [2] is “do not appreciably contribute to the cellular uptake of vincristine”. Moreover, the “Vincristine uptake (% of vector control)” value in data set [3] is 209.00 % of vector control and 219.00 % of vector control and 238.00 % of vector control and 218.00 % of vector control and 216.00 % of vector control and 220.00 % of vector control.
